Assay results from US11046698B2, “TYK2 inhibitors and uses thereof” (Nimbus Lakshmi, Inc., priority 2017, dated 2021).
Each block holds one molecule with its values, some of them ahead of it.

Tests used:
[1] = molecular target: JAK2 kinase domain (JH1) (Homo sapiens (Human), UniProt O60674); test: JAK2 Radioactive Kinase Assay; type: biochemical; conditions: ATP 10 μM
Description: (§1) The Tyk2 and JAK2 radioactive kinase assay measures the percent inhibiton at the Tyk2 kinase domain (JH1) and the percent inhibiton at the JAK2 kinase domain (JH1). Results of the assay are expressed as percent inhibition at 10 μM.

[2] = molecular target: Tyk2 kinase domain (JH1) (Homo sapiens (Human), UniProt P29597); test: Tyk2 Radioactive Kinase Assay; type: biochemical; conditions: ATP 10 μM
Description: as §1

[3] = system: GM-CSF induced STAT5 phosphorylation mediated by the JAK2/JAK2 homodimeric complex; test: GM-CSF Induced pSTAT5 in Human PBMC; conditions: 20 min, read-out: PBMC_GMCSF_pSTAT5 IC50 (μM), human PBMC, GM-CSF 5 ng/mL for 20 minutes, pSTAT5 by MSD
[4] = system: IL-12 induced STAT4 phophorylation mediated by Tyk2/JAK2 (heterodimeric complex); test: IL-12 Induced pSTAT4 in Human PBMC; type: cell-based; conditions: 1.7 ng/mL IL-12
Excerpt: The IL-12 Induced pSTAT4 assay evaluates the inhibition of IL-12 induced STAT4 phophorylation mediated by Tyk2/JAK2 (heterodimeric complex).

[5] = molecular target: human TYK2 (JH2domain-pseudokinase) (Homo sapiens (Human), UniProt P29597); test: TYK2 JH2 Domain Binding Assay (KINOMEscan, DiscoveRx)
Description: Binding constants for compounds of the present invention against the JH2 domain were determined by the following protocol for a KINOMEscan® assay (DiscoveRx). A fusion protein of a partial length construct of human TYK2 (JH2domain-pseudokinase) (amino acids G556 to D888 based on reference sequence NP_003322.3) and the DNA binding domain of NFkB was expressed in transiently transfected HEK293 cells. From these HEK 293 cells, extracts were prepared in M-PER extraction buffer (Pierce) in the presence of Protease Inhibitor Cocktail Complete (Roche) and Phosphatase Inhibitor Cocktail Set II (Merck) per manufacturers' instructions. The TYK2(JH2domain-pseudokinase) fusion protein was labeled with a chimeric double-stranded DNA tag containing the NFkB binding site (5′-[…]-3′) fused to an amplicon for qPCR readout, which was added directly to the expression extract (the final concentration of DNA-tag in the binding reaction is 0.1 nM). […]
Extracts were used directly in binding assays without any enzyme purification steps at a ≥10,000-fold overall stock dilution (final DNA-tagged enzyme concentration <0.1 nM). […] Kds were determined using an 11-point 3-fold compound dilution series with three DMSO control points. […]
Kds were determined using an 11-point 3-fold compound dilution series with three DMSO control points. […] The Kds were determined using a compound top concentration of 30,000 nM. […]

Sequence of Tyk2 kinase domain (JH1) (P29597 897-1176): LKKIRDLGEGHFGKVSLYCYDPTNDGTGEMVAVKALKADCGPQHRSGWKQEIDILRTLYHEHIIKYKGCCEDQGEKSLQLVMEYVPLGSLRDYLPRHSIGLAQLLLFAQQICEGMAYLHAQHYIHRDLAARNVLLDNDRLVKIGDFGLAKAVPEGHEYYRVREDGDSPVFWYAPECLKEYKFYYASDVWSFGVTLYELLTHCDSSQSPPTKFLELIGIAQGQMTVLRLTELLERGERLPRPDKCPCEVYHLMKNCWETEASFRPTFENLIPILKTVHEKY
Sequence of JAK2 kinase domain (JH1) (O60674 849-1124): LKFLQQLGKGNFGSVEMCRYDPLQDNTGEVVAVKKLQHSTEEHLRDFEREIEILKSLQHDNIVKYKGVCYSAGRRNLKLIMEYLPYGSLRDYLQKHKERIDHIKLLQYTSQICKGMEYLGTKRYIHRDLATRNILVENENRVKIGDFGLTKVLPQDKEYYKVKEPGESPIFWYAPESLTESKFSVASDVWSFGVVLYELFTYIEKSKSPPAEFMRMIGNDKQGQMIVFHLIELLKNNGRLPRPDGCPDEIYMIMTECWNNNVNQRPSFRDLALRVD
Sequence of human TYK2 (JH2domain-pseudokinase) (P29597 556-888): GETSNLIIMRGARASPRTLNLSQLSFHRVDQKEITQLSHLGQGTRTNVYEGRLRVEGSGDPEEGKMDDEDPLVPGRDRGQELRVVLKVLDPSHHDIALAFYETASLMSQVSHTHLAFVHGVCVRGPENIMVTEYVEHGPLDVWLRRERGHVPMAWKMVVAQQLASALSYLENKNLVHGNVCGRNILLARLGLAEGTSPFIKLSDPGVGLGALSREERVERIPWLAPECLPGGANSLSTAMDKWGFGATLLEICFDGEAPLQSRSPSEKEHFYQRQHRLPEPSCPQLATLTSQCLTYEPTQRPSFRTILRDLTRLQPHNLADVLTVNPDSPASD

Structure (SMILES): CNc1cc(Nc2cccn([C@H]3CC[C@@H](N4CCOCC4)CC3)c2=O)nc2c(C(=O)N[C@H]3C[C@H]3F)cnn12 [I-304]
JAK2 JH1% Inhibition @ 10 μM ([1]; 10 μM compound): A (had a percent inhibition at 10 μM lower than 50)
Tyk2 JH1% Inhibition @ 10 μM ([2]; 10 μM compound): A (had a percent inhibition at 10 μM lower than 50)

Structure (SMILES): CNc1cc(Nc2cccn([C@H]3CC[C@](C)(OC)CC3)c2=O)nc2c(C(=O)N[C@H]3C[C@H]3F)cnn12 [I-362]
IC50 [3]: > 50 µM
IC50 [4]: < 100 nM

Structure (SMILES): CNc1cc(Nc2cccnc2OC)nc2c(C(=O)NC3CC4(COC4)C3)cnn12 [I-408]
inhibition at 10 µM ([1]; 10 μM compound): < 50%
inhibition at 10 µM ([2]; 10 μM compound): < 50%

Structure (SMILES): CNc1cc(Nc2cccc([C@@H]3CCCOC3)n2)nc2c(C(=O)N[C@H]3CC[C@@H]3O)cnn12 [I-664]
inhibition at 10 µM ([1]; 10 μM compound): < 50%
inhibition at 10 µM ([2]; 10 μM compound): < 50%

Structure (SMILES): CNc1cc(Nc2cccn([C@H]3CC[C@H](OC)CC3)c2=O)nc2c(C(=O)N[C@H]3COC[C@H]3O)cnn12 [I-746]
JAK2 JH1% Inhibition @ 10 μM ([1]; 10 μM compound): A (had a percent inhibition at 10 μM lower than 50)
Tyk2 JH1% Inhibition @ 10 μM ([2]; 10 μM compound): A (had a percent inhibition at 10 μM lower than 50)

Structure (SMILES): CNc1cc(Nc2cccn([C@H]3CC[C@@H]3OC)c2=O)nc2c(C(=O)NC3CC3)cnn12 [I-936]
Kd [5]: 0.2 to 1 nM

More lines, now with the values ahead:

IC50 [3]: > 12.5 µM
IC50 [4]: < 100 nM
Structure (SMILES): CNc1cc(Nc2cc(Cl)cn([C@@H]3CCCOC3)c2=O)nc2c(C(=O)N[C@@H]3C[C@@H]3F)cnn12 [I-773]

Kd [5]: < 0.2 nM
IC50 [3]: > 50 µM
inhibition at 10 µM ([1]; compound at 10 μM): < 50%
inhibition at 10 µM ([2]; compound at 10 μM): < 50%
Structure (SMILES): CNc1cc(Nc2cccn3ccnc23)cc2c(C(=O)N[C@H]3CC[C@@H]3OC)cnn12 [I-1052]

IC50 [4]: < 100 nM
Structure (SMILES): CNc1cc(-c2cn([C@H]3CCN(CCF)C3)c3ncccc23)nc2c(C(=O)N[C@@H]3C[C@@H]3F)cnn12 [I-1362]

IC50 [4]: < 100 nM
Structure (SMILES): CNc1cc(-c2cn(C(C)C)c3ncc(F)cc23)nc2c(C(=O)N[C@H]3CC[C@H]3O)cnn12 [I-1387]
